How the values were obtained:
[1] = test system: Pseudocercosporella herpotrichoides; conditions: causal agent of eyespot of cereals; cited from earlier work
Pyrenophora graminea [2] = assay: Indoor pot test, spring barley seed dressing; assay type: in vivo; conditions: dosage 8 g a.i./100kg seed, growth chamber 10°C, visual evaluation 60 days after dressing and sowing
Experimental: (§1) Spring barley seed naturally infested by Pyrenophora graminea are treated with a seed dressing formulation according to Example 1 and sown in pots filled with a substrate equivalent to a sandy loam in a growth chamber at 10°C with 14-17 hours daylight. The determination of the fungal control involves a visual evaluation 60 days after said dressing and sowing.

Ustilago nuda = assay: Outdoor pot test, spring barley seed dressing; assay type: in vivo; conditions: dosage 8 g a.i./100kg seed
Experimental: as §1
(§2) Analogous tests are run outdoors under naturally occurring wheather conditions with spring barley infected by Pyrenophora graminea and Ustilago nuda. […]

Pyrenophora graminea [3] = assay: Outdoor pot test, spring barley seed dressing; assay type: in vivo; conditions: dosage 8 g a.i./100kg seed
Experimental: as §1, §2

Fusarium culmorum = assay: inhibition zone test, treated wheat seeds on agar containing the fungus; assay type: cell-based; conditions: seed dressing, evaluated one week after placing on agar
Experimental: (§3) The efficacy against seed-borne diseases can be illustrated by the inhibition zone test: single seeds treated with a seed dressing formulation comprising the compound to be tested e.g. with the seed dressing formulation according to Example 2 (hereinafter described) are placed on agar containing the seed-borne fungus. […] The size of the inhibition zone is evaluated one week after the seed has been placed on the agar. The activity is expressed as the concentration (in g per 100 kg seed) resulting in 90 % or more growth inhibition of the fungal mycelium.

Gerlachia nivalis = assay: as above; assay type: cell-based; conditions: seed dressing, evaluated one week after placing on agar
Experimental: as §3

Septoria nodorum = assay: as above; assay type: cell-based; conditions: seed dressing, evaluated one week after placing on agar
Experimental: as §3

Pyrenophora teres = assay: inhibition zone test, treated barley seeds on agar containing the fungus; assay type: cell-based; conditions: seed dressing, evaluated one week after placing on agar
Experimental: as §3

Cochliobulus sativus = assay: as above; assay type: cell-based; conditions: seed dressing, evaluated one week after placing on agar
Experimental: as §3

Pyrenophora graminea [4] = assay: as above; assay type: cell-based; conditions: seed dressing, evaluated one week after placing on agar
Experimental: as §3

| Molecule | fungicidal activity in in-vitro tests [1] | % Control indoors P. gram. (Pyrenophora graminea [2]) | % Control outdoors U. nuda (Ustilago nuda) | % Control outdoors P. gram. (Pyrenophora graminea [3]) | Concentration (g/100 kg Seed) providing ≧90% control (Fusarium culmorum) | Concentration (g/100 kg Seed) providing ≧90% control (Gerlachia nivalis) | Concentration (g/100 kg Seed) providing ≧90% control (Septoria nodorum) | Concentration (g/100 kg Seed) providing ≧90% control (Pyrenophora teres) | Concentration (g/100 kg Seed) providing ≧90% control (Cochliobulus sativus) | Concentration (g/100 kg Seed) providing ≧90% control (Pyrenophora graminea [4]) |
| --- | --- | --- | --- | --- | --- | --- | --- | --- | --- | --- |
| CN(C/C=C/c1ccccc1)Cc1cccc2ccccc12 [naftifine] | fungicidal activity |  |  |  |  |  |  |  |  |  |
| CCCC(C)(C)C#CC=CCN(C)Cc1cccc2ccccc12 [nC₃H₇, N-(6,6-Dimethyl-2-nonen-4-inyl)-N-Methyl-1-naphthylmethylamine] |  | 80-90% | 100% | 80% | 8 g/100 kg Seed | 2 g/100 kg Seed | 2 g/100 kg Seed | 4 g/100 kg Seed | 2 g/100 kg Seed | 2 g/100 kg Seed |
| CN(C/C=C/C#CC(C)(C)C)Cc1cccc2ccccc12 [CH₃, terbinafine] | fungicidal activity |  |  |  |  | <5 g/100 kg Seed |  |  |  | <5 g/100 kg Seed |
| Guazatine |  |  |  |  | 4 g/100 kg Seed | 8 g/100 kg Seed |  |  |  |  |
| C=CCOC(Cn1ccnc1)c1ccc(Cl)cc1Cl (stereo not shown) [Standard A, Imazalil] |  |  |  |  |  |  | 8 g/100 kg Seed | 8 g/100 kg Seed | 4 g/100 kg Seed | 8 g/100 kg Seed |
